Measured values taken from patent US7358359B2, “Antibacterial agents” (University of Washington, priority 2003, dated 2008).
Converted amounts (≈) assume the structure as drawn. Where two headings read alike, the source gives them in different places.

What was measured:
Assay type in all cases: cell-based
[1] = system: non-CF clinical isolates of P. aeruginosa; assay: MIC vs non-CF clinical isolates of P. aeruginosa; conditions: Pseudomonas aeruginosa, comparator antibacterials
Description: Bacterial isolates were cultivated from −70° C. frozen stocks by two consecutive overnight passages at 35° C. in ambient air on 5% blood agar (Remel, Lenexa, Kans.). Clinical isolates tested were from a collection composed of isolates collected during clinical trials and recent clinical isolates obtained from various geographically diverse hospitals in the US. Quality control and primary panel strains were from the American Type Culture Collection (ATCC; Rockville, Md.), with the exception of P. aeruginosa PAO200, a strain with a deletion of the mexABoprM genes that was received from Dr. H. Schweizer. […] Strain Z61 (ATCC 35151) is also hypersusceptible to antibacterials. It is thought that the hypersusceptibility of this strain is the result of increased permeability of its outer membrane (Angus B L et al, Antimicrobial Agents and Chemotherapy 1982 21,299-309: Outer membrane permeability in Pseudomonas aeruginosa: Comparison of a wild-type with an antibacterial-supersusceptible mutant).
(§1) Minimum Inhibitory Concentrations (MICs) were determined by the broth microdilution method in accordance with the National Committee for Clinical Laboratory Standards (NCCLS) guidelines. In brief, organism suspensions were are adjusted to a 0.5 McFarland standard to yield a final inoculum between 3×10^5 and 7×10^5 colony-forming units (CFU)/mL. Drug dilutions and inocula were made in sterile, cation adjusted Mueller-Hinton Broth (Remel). An inoculum volume of 100 μl was added to wells containing 100 μl of broth with 2-fold serial dilutions of drug. All inoculated microdilution trays were incubated in ambient air at 35° C. for 18-24 hours. Following incubation, the lowest concentration of the drug that prevented visible growth was recorded as the MIC. Performance of the assay was monitored by the use of laboratory quality-control strains against tobramycin, that has a defined MIC spectrum, in accordance with NCCLS guidelines.

[2] = system: Acinetobacter calcoaceticus; assay: MIC vs non-fermenting organisms: Acinetobacter calcoaceticus; conditions: Acinet. calc., comparator antibacterials
Description: (§2) Bacterial isolates were cultivated from −70° C. frozen stocks by two consecutive overnight passages at 35° C. in ambient air on 5% blood agar (Remel, Lenexa, Kans.). Clinical isolates tested were from a collection composed of isolates collected during clinical trials and recent clinical isolates obtained from various geographically diverse hospitals in the US. Quality control and primary panel strains were from the American Type Culture Collection (ATCC; Rockville, Md.), with the exception of P. aeruginosa PAO200, a strain with a deletion of the mexABoprM genes that was received from Dr. H. Schweizer.
as §1, with “MIC.” for “MIC. Performance of the assay was monitored by the use of laboratory quality-control strains against tobramycin, that has a defined MIC spectrum, in accordance with NCCLS guidelines.”

Alcaligenes xylosoxidans = assay: MIC vs non-fermenting organisms: Alcaligenes xylosoxidans; conditions: Achromobacter xylosoxidans; Alcal. xyl; comparator antibacterials
Description: as §2
as §1, with “MIC.” for “MIC. Performance of the assay was monitored by the use of laboratory quality-control strains against tobramycin, that has a defined MIC spectrum, in accordance with NCCLS guidelines.”

Burkholderia cepacia = assay: MIC vs non-fermenting organisms: Burkholderia cepacia; conditions: Burkholderia cepacia, B. cepacia; comparator antibacterials; read-out: MIC
Description: as §2
as §1, with “MIC.” for “MIC. Performance of the assay was monitored by the use of laboratory quality-control strains against tobramycin, that has a defined MIC spectrum, in accordance with NCCLS guidelines.”

[3] = system: Stenotrophomonas maltophilia; assay: MIC vs non-fermenting organisms: Stenotrophomonas maltophilia; conditions: Stenotrophomonas maltophilia, S. malt.; comparator antibacterials; read-out: MIC
Description: as §2
as §1, with “MIC.” for “MIC. Performance of the assay was monitored by the use of laboratory quality-control strains against tobramycin, that has a defined MIC spectrum, in accordance with NCCLS guidelines.”

Enterobacter aerogenes = assay: MIC vs enteric organisms: Enterobacter aerogenes; conditions: Klebsiella aerogenes; E. aer.; comparator antibacterials
Description: as §2
as §1, with “MIC.” for “MIC. Performance of the assay was monitored by the use of laboratory quality-control strains against tobramycin, that has a defined MIC spectrum, in accordance with NCCLS guidelines.”

Enterobacter cloacae = assay: MIC vs enteric organisms: Enterobacter cloacae; conditions: E. clo., comparator antibacterials
Description: as §2
as §1, with “MIC.” for “MIC. Performance of the assay was monitored by the use of laboratory quality-control strains against tobramycin, that has a defined MIC spectrum, in accordance with NCCLS guidelines.”

Escherichia coli = assay: MIC vs enteric organisms: Escherichia coli clinical isolates; conditions: comparator antibacterials
Description: as §2
as §1, with “MIC.” for “MIC. Performance of the assay was monitored by the use of laboratory quality-control strains against tobramycin, that has a defined MIC spectrum, in accordance with NCCLS guidelines.”

Klebsiella pneumoniae = assay: MIC vs enteric organisms: Klebsiella pneumoniae; conditions: K. pneu., comparator antibacterials
Description: as §2
as §1, with “MIC.” for “MIC. Performance of the assay was monitored by the use of laboratory quality-control strains against tobramycin, that has a defined MIC spectrum, in accordance with NCCLS guidelines.”

Klebsiella oxytoca = assay: MIC vs enteric organisms: Klebsiella oxytoca; conditions: K. oxy., comparator antibacterials
Description: as §2
as §1, with “MIC.” for “MIC. Performance of the assay was monitored by the use of laboratory quality-control strains against tobramycin, that has a defined MIC spectrum, in accordance with NCCLS guidelines.”

Proteus mirabilis = assay: MIC vs enteric organisms: Proteus mirabilis; conditions: P. mir., comparator antibacterials
Description: as §2
as §1, with “MIC.” for “MIC. Performance of the assay was monitored by the use of laboratory quality-control strains against tobramycin, that has a defined MIC spectrum, in accordance with NCCLS guidelines.”

Serratia marcescens = assay: MIC vs enteric organisms: Serratia marcescens; conditions: S. marc., comparator antibacterials
Description: as §2
as §1, with “MIC.” for “MIC. Performance of the assay was monitored by the use of laboratory quality-control strains against tobramycin, that has a defined MIC spectrum, in accordance with NCCLS guidelines.”

With `C[C@@H](O)[C@H]1C(=O)N2C(C(=O)O)=C(S[C@@H]3CN[C@H](C(=O)N(C)C)C3)[C@H](C)[C@H]12` [Meropenem, meropenem, reference compound] the MIC ([1]; P. aer 12307) was 0.5 µg/mL (≈ 1.3 µM), the MIC ([1]; P. aer psa-6b) was 0.25 µg/mL (≈ 0.652 µM) and the MIC [2] was 4 µg/mL (≈ 10.4 µM). For the same molecule, the MIC (Alcaligenes xylosoxidans) was 0.5 µg/mL (≈ 1.3 µM), the MIC (Burkholderia cepacia) was 4 µg/mL (≈ 10.4 µM) and the MIC [3] was 64 µg/mL (≈ 167 µM). The MIC (Enterobacter aerogenes) was 2 µg/mL (≈ 5.22 µM), the MIC (Enterobacter cloacae) was ≤ 0.06 µg/mL and the MIC (Escherichia coli; E. coli 1619) was 0.13 µg/mL (≈ 0.339 µM). For the same molecule, the MIC (Escherichia coli; Escherichia coli, E. coli 1619, read-out: MIC) was 0.25 µg/mL (≈ 0.652 µM), the MIC (Escherichia coli; Escherichia coli, E. coli 2788, read-out: MIC) was ≤ 0.06 µg/mL and the MIC (Klebsiella pneumoniae) was 0.13 µg/mL (≈ 0.339 µM). The MIC (Klebsiella oxytoca) was ≤ 0.06 µg/mL, the MIC (Proteus mirabilis) was 0.5 µg/mL (≈ 1.3 µM) and the MIC (Serratia marcescens) was 0.13 µg/mL (≈ 0.339 µM).
